Source: patent US8785439B2, “2,5,7-substituted oxazolopyrimidine derivatives” (Sanofi, priority 2010, dated 2014)

Target: T1, human Edg-1 receptor (Homo sapiens, UniProt P21453)
T1 construct: FLAG (N); expressed in transfected cells; membrane preparation
Test: GTP-γ-S assay using human Edg-1 receptors (SPA, CHO Flp-In cell membrane preparation)
Assay type: biochemical
Conditions: test compound at 10 μM; high control 10 μM S1P regarded as 100% activation; background-corrected; triplicate; read-out: % Activation (Edg-1 receptor activation in percent of the activation by 10 μM S1P)
Description: Determination of the Pharmacological Activity A) GTP-γ-S Assay Using Human Edg-1 Receptors
In order to determine the Edg-1 receptor activation by the compounds of the invention, a GTP-γ-S (guanosine 5′-[γ-thio]triphosphate) assay for G-protein coupled receptor binding based on the scintillation proximity assay principle was used, employing a cell membrane preparation from a CHO Flp-In cell line which constitutively overexpresses the human Edg-1 receptor.
The Flp-In™ expression system (Invitrogen, cat. no. K6010-01) allows the generation of stable mammalian cell lines into which the gene of interest has been integrated through homologous recombination at a specific genomic location called Flp Recombination Target (FRT) site by means of a Flp recombinase encoded by the pOG44 expression plasmid. The integration of the pcDNA5/FRT expression construct into the Flp-In host cell line genome results in the transcription of the gene of interest. The stably transfected cells become hygromycin-resistant.
One day prior to transfection, 200 000 Flp-In-CHO cells were seeded in Ham F-12 medium (Invitrogen, cat. no. 31765) supplemented with 10% fetal calf serum (FCS; Perbio Science, cat. no. SH30068.03) in a 6-well plate and incubated at 37° C./5% CO2 overnight. Using the FuGENE® 6 transfection reagent (Roche, cat. no. 11988387001), cells were cotransfected with the Flp recombinase expression plasmid pOG44 and a modified plasmid additionally containing the edg-1 gene (accession no. NM_001400) termed as pcDNA5-FRT-TO_nFLAG_DEST-EDG-1 with a 9:1 ratio. To obtain the modified pcDNA5-FRT-TO_nFLAG_DEST plasmid, the Invitrogen plasmid pcDNA5/FRT/TO (Invitrogen, cat. no. V6520-20) was adapted to the Gateway® (Invitrogen) cloning system by inserting a Gateway cassette containing attR recombination sites flanking a ccdB gene and a chloramphenicol-resistance gene (Gateway conversion system, Invitrogen, cat. no. 11828-029). In addition a FLAG tag epitope was added before the 5′ att recombination site to allow recombinant expression of N-terminally FLAG-tagged proteins.
For the transfection of one well, 1.08 μg of pOG44 and 0.12 μg of pcDNA5-FRT-TO_nFLAG_DEST-EDG-1 were mixed with 100 μl of serum-free Ham F-12 medium containing 6 μl of FuGENE® 6 transfection reagent. After 20 min of incubation, the transfection reagent/DNA complex was distributed dropwise on the cells. The cells were incubated for 24 h at 37° C. Then the cells from 3 wells each were transferred to a T75 flask (Greiner Cellstar®, cat. no. 658175) containing Ham F-12 medium supplemented with 10% of FCS but without antibiotic and were incubated another 24 h. 48 h after transfection, the medium was replaced by selection medium (Ham F-12 supplemented with 10% of FCS and 300 μg/ml of hygromycin B (Invitrogen, cat. no. 10687-010)). The medium was exchanged every 2 to 3 days until a resistant population of cells had grown. […] After 2 weeks of selection, the cells were transferred into T175 flasks (Greiner Cellstar®, cat. no. 660175) and cultivated for batch production. Cells were harvested from the culture flasks by short treatment (2 to 5 min) with Accutase (PAA, cat. no. L11-007), resuspended in selection medium (see above) and centrifuged at 200×g for 5 min. Cells were resuspended in a mixture of 90% of FCS and 10% of dimethylsulfoxide and stored frozen in liquid nitrogen.
A membrane preparation was obtained by standard methods from the afore-described CHO Flp-In cell line constitutively overexpressing the human Edg-1 receptor. Briefly, the cryopreserved cells were taken in culture and grown until confluency in T175 cell culture flasks (Becton Dickinson, cat. no. 35 5001). […]

T1 sequence (P21453 whole entry): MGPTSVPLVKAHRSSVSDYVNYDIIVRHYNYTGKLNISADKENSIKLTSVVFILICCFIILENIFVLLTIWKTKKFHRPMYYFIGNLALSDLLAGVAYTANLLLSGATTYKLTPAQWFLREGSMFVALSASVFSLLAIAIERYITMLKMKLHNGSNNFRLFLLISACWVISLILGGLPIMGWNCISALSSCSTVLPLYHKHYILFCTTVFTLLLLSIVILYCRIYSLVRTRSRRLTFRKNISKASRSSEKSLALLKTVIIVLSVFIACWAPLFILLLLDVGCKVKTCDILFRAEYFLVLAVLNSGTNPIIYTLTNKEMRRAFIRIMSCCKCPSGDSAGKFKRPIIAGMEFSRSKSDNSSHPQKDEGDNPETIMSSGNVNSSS

Row | activation at 10 µM [%] | SMILES
1 | 70 | CCCOc1nc(Oc2cccc(SC(F)(F)F)c2)nc2oc(-c3cccc(C)c3)nc12 [Example 116, 7-propoxy-2-(3-methyl-phenyl)-5-(3-trifluoromethylsulfanyl-phenoxy)-oxazolo[5,4-d]pyrimidine]
2 | 119 | CCOc1nc(Oc2ccccc2F)nc2oc(-c3cc(C)c(O)c(C)c3)nc12 [Example 47, 4-[7-ethoxy-5-(2-fluoro-phenoxy)-oxazolo[5,4-d]pyrimidin-2-yl]-2,6-dimethyl-phenol]
3 | 82 | CCCOc1nc(Oc2ccc(C(F)(F)F)cc2Cl)nc2oc(-c3cccc(C)c3)nc12 [Example 145, 5-(2-chloro-4-trifluoromethyl-phenoxy)-7-propoxy-2-(3-methyl-phenyl)-oxazolo[5,4-d]pyrimidine]
4 | 92 | CCCOc1nc(Sc2ccccc2)nc2oc(-c3cc(F)ccc3Cl)nc12 [Example 150, 2-(2-chloro-5-fluoro-phenyl)-5-phenylsulfanyl-7-propoxy-oxazolo[5,4-d]pyrimidine]
5 | 70 | CCCOc1nc(NC2CCCCC2)nc2oc(-c3cc(F)ccc3Cl)nc12 [Example 149, [2-(2-chloro-5-fluoro-phenyl)-7-propoxy-oxazolo[5,4-d]pyrimidin-5-yl]-cyclohexyl-amine]
6 | 70 | CCCOc1nc(Oc2ccccc2)nc2oc(-c3cc(F)ccc3Cl)nc12 [Example 78, 2-(2-chloro-5-fluoro-phenyl)-5-phenoxy-7-propoxy-oxazolo[5,4-d]pyrimidine]
7 | 109 | CCCOc1nc(NC2CCC(F)(F)CC2)nc2oc(-c3cc(F)ccc3Cl)nc12 [Example 64, [2-(2-chloro-5-fluoro-phenyl)-7-propoxy-oxazolo[5,4-d]pyrimidin-5-yl]-(4,4-difluoro-cyclohexyl)-amine]
8 | 46 | CCCOc1nc(Oc2ccc(SC(F)(F)F)cc2)nc2oc(-c3cccc(C)c3)nc12 [Example 112, 7-propoxy-2-(3-methyl-phenyl)-5-(4-trifluoromethylsulfanyl-phenoxy)-oxazolo[5,4-d]pyrimidine]
9 | 83 | C=CCCCOc1nc(OCC2CC2)c2nc(-c3cccc(C)c3)oc2n1 [Example 16, 7-cyclopropylmethoxy-5-pent-4-enyloxy-2-(3-methyl-phenyl)-oxazolo[5,4-d]pyrimidine]
10 | 100 | CCOc1nc(Oc2cccc(S(N)(=O)=O)c2)nc2oc(-c3cccc(C)c3)nc12 [Example 22, 3-(7-ethoxy-2-(3-methyl-phenyl)-oxazolo[5,4-d]pyrimidin-5-yloxy)-benzenesulfonamide]
11 | 124 | CCCOc1nc(Oc2c(F)cccc2F)nc2oc(-c3cccc(C)c3)nc12 [Example 97, 5-(2,6-difluoro-phenoxy)-7-propoxy-2-(3-methyl-phenyl)-oxazolo[5,4-d]pyrimidine]
12 | 121 | CCCOc1nc(Oc2ccccc2CCC)nc2oc(-c3cccc(C)c3)nc12 [Example 126, 7-propoxy-5-(2-propyl-phenoxy)-2-(3-methyl-phenyl)-oxazolo[5,4-d]pyrimidine]

More lines, now with the values behind:

Row | SMILES | activation at 10 µM [%]
13 | CCCOc1nc(Oc2ccc(Cl)cc2OC)nc2oc(-c3cc(F)ccc3Cl)nc12 [Example 63, 2-(2-chloro-5-fluoro-phenyl)-5-(4-chloro-2-methoxy-phenoxy)-7-propoxy-oxazolo[5,4-d]pyrimidine] | 80
14 | CCCOc1nc(OC2CCOCC2)nc2oc(-c3cc(F)ccc3Cl)nc12 [Example 117, 2-(2-chloro-5-fluoro-phenyl)-7-propoxy-5-(tetrahydro-pyran-4-yloxy)-oxazolo[5,4-d]pyrimidine] | 63
15 | CCCOc1nc(NC2CCC(C)CC2)nc2oc(-c3cc(F)ccc3Cl)nc12 (centres unmarked) [Example 113, [2-(2-chloro-5-fluoro-phenyl)-7-propoxy-oxazolo[5,4-d]pyrimidin-5-yl]-(4-methyl-cyclohexyl)-amine] | 52
16 | CCCOc1nc(Oc2ccc(C)cc2OC)nc2oc(-c3cccc(C)c3)nc12 [Example 135, 5-(2-methoxy-4-methyl-phenoxy)-7-propoxy-2-(3-methyl-phenyl)-oxazolo[5,4-d]pyrimidine] | 1
17 | CCCOc1nc(NC2CCOCC2)nc2oc(-c3cc(F)ccc3Cl)nc12 [Example 57, [2-(2-chloro-5-fluoro-phenyl)-7-propoxy-oxazolo[5,4-d]pyrimidin-5-yl]-(tetrahydro-pyran-4-yl)-amine] | 80
18 | CCCOc1nc(Oc2ccccc2F)nc2oc(-c3cccc(C)c3)nc12 [Example 103, 5-(2-fluoro-phenoxy)-7-propoxy-2-(3-methyl-phenyl)-oxazolo[5,4-d]pyrimidine] | 109
19 | CCCOc1nc(Oc2ccc(Cl)cc2Cl)nc2oc(-c3cccc(C)c3)nc12 [Example 119, 5-(2,4-dichloro-phenoxy)-7-propoxy-2-(3-methyl-phenyl)-oxazolo[5,4-d]pyrimidine] | 116
20 | CCCOc1nc(Oc2ccccc2F)nc2oc(-c3cccnc3)nc12 [Example 107, 5-(2-fluoro-phenoxy)-7-propoxy-2-pyridin-3-yl-oxazolo[5,4-d]pyrimidine] | 129
21 | CCOc1nc(Oc2cccc(S(=O)(=O)N(C)C)c2)nc2oc(-c3cccc(C)c3)nc12 [Example 17, 3-(7-ethoxy-2-(3-methyl-phenyl)-oxazolo[5,4-d]pyrimidin-5-yloxy)-N,N-dimethyl-benzenesulfonamide] | 55
22 | CCCOc1nc(Oc2cc(F)cc(F)c2)nc2oc(-c3cccc(C)c3)nc12 [Example 127, 5-(3,5-difluoro-phenoxy)-7-propoxy-2-(3-methyl-phenyl)-oxazolo[5,4-d]pyrimidine] | 110
23 | CCCOc1nc(Oc2cc(F)cc(Cl)c2)nc2oc(-c3cccc(C)c3)nc12 [Example 138, 5-(3-chloro-5-fluoro-phenoxy)-7-propoxy-2-(3-methyl-phenyl)-oxazolo[5,4-d]pyrimidine] | 97
24 | CCCOc1nc(Oc2ccc(OC(F)(F)F)c(Cl)c2)nc2oc(-c3cccc(C)c3)nc12 [Example 52, 5-(3-chloro-4-trifluoromethoxy-phenoxy)-7-propoxy-2-(3-methyl-phenyl)-oxazolo[5,4-d]pyrimidine] | 51
25 | CCCOc1nc(Oc2cncc(F)c2)nc2oc(-c3ccc(Cl)c(Cl)c3)nc12 [Example 160, 2-(3,4-dichloro-phenyl)-5-(5-fluoro-pyridin-3-yloxy)-7-propoxy-oxazolo[5,4-d]pyrimidine] | 75
26 | CCCOc1nc(Oc2cc(C)cc(C)c2C)nc2oc(-c3cccc(C)c3)nc12 [Example 123, 7-propoxy-2-(3-methyl-phenyl)-5-(2,3,5-trimethyl-phenoxy)-oxazolo[5,4-d]pyrimidine] | 65
27 | CCCOc1nc(Oc2cccc(S(N)(=O)=O)c2)nc2oc(-c3cccc(F)c3)nc12 [Example 23, 3-[2-(3-fluoro-phenyl)-7-propoxy-oxazolo[5,4-d]pyrimidin-5-yloxy]-benzenesulfonamide] | 47
28 | CCCOc1nc(Oc2ccc(Cl)c(F)c2)nc2oc(-c3cccc(C)c3)nc12 [Example 74, 5-(4-chloro-3-fluoro-phenoxy)-7-propoxy-2-(3-methyl-phenyl)-oxazolo[5,4-d]pyrimidine] | 69
29 | CCCOc1nc(Oc2cc(C)nn2C)nc2oc(-c3cccc(C)c3)nc12 [Example 25, 5-(2,5-dimethyl-2H-pyrazol-3-yloxy)-7-propoxy-2-(3-methyl-phenyl)-oxazolo[5,4-d]pyrimidine] | 110
